US6180664A (priority 1996, dated 2001)

How the values were obtained:
[1] = test system: isolated rabbit aortic rings; assay: tissue or blood
[2] = test system: blood; settings: cited from earlier work

CCOC(=O)C(CO[N+](=O)[O-])(CO[N+](=O)[O-])C(=O)OCC [Bis-MA diethyl ester, Diethyl 2,2-bis(nitryloxymethyl)malonate]
EC50 ([1]; Oryctolagus cuniculus, read-out: pD2 value (converted)): 251 nM

O=[N+]([O-])OCC(CO)(CO)CO [PEMN, pentaerythrityl mononitrate]
pD2 value [1]: 5

CCCCCCCCCCCCCCCCOCC(COP(=O)([O-])OCC[N+](C)(C)C)OC(C)=O (stereo not shown) [platelet activation factor]
concentration inducing platelet aggregation [2]: 0.1 nM
concentration inducing vasodilation [2]: 0.1 nM
